Experimental data from patent US20090062267A1, “L-ALANINE DERIVATIVES AS a5beta1 ANTAGONISTS” (ASTRAZENECA AB, priority 2007, published 2009).
pIC50: −log10 of the molar value.

These molecules were tested against recombinant human α5β1 (Homo sapiens, UniProt P05556+P08648) (assay: In Vitro Binding Assay (a): inhibition of binding of α5β1 integrin to a fragment of human fibronectin (Fn9-10), Origen electrochemiluminescence). Settings: geometric mean where tested more than once.
From the text: The assay determined the ability of compounds to inhibit binding of α5β1 integrin to a cognate ligand, a fragment of human fibronectin. The assay used Origen technology (IGEN International) to measure the compound activity. Briefly, α5β1 integrin was coated onto epoxy-paramagnetic beads (Dynal Biotech UK, Bromborough, Wirral, CH62 3QL, UK, Catalogue No 140.11) and biotinylated-fibronectin ligand was coupled to strepatividin labeled Tag-NHS-Ester (BioVeris Corporation, Witney, Oxfordshire, OX28 4GE, UK, Catalogue No 110034). The ruthenium-labeled tag emits an electrochemiluminescence signal upon stimulation which is detected by the Origen reader. Thus, interaction of integrin and ligand causes association of bead and tag, and the resulting electrochemiluminescence signal reflects the level of integrin interaction with fibronectin.
20 μg of recombinant human α5β1 was coated onto 4×10(7) epoxy-paramagnetic beads according to manufacturers instructions at 4° C. for 24 hours. Integrin coating and corresponding activity was subsequently measured for each batch but typically, 25 ng of coated protein was used per assay well.
A DNA fragment encoding the domains 9-10 (amino-acids 1325-1509) of human fibronectin (Swiss-Prot Accession No. P02751) was isolated from cDNA libraries using standard molecular biology and PCR cloning techniques. The cDNA fragment was sub-cloned into a pT73.3 expression vector containing a GST-epitope tag (developed at AstraZeneca; Bagnall et al., Protein Expression and Purification, 2003, 27: 1-11). Following expression in E. coli, the expressed protein, termed Fn9-10, was purified using the GST-tag using standard purification techniques. The recombinant Fn9-10 was subsequently biotinylated using a EZ-link Sulfo-NHS-LC-Biotinylation kit (Perbio Science UK Ltd., Cramlington, Northumberland, NE23 1WA, UK, Catalogue No. 21335) and made to give a final concentration of approximately 1 mg/ml. Tag-NHS-Ester was labeled with streptavidin by incubation at room temperature following manufacturers instructions and buffer-exchanged into PBS to give a concentration of 0.5 mg/ml. Immediately prior to the assay, biotinylated-Fn9-10 and Streptavidin-labeled Tag were diluted in Assay Buffer to give a final concentrations of 0.6 ug/ml and 1.5 ug/ml respectively. The Fn9-10 and Tag solutions were then mixed together in equal volumes and incubated on ice for at least 30 minutes prior to the assay.
Aliquots (20 μl) of each compound dilution were placed into each well of a 384-well round bottomed polypropylene plate (Matrix Technologies, Wilmslow, Cheshire, SK9 3LP, Catalogue No. 4340 384).
For the assay, 25 ng (20 ul) of a5b1-bead suspension and 40 μl of the Fn9-10/Tag pre-incubated solution were added to each well containing 20 μl of compound or control solution. Assay plates were then incubated at room temperature for a minimum of 6 hours before being analysed on an Origen plate reader. The minimum value was subtracted from all values, and the signal was plotted against compound concentration to generate IC50 data.
The data in the above table was generated in an assay substantially as described above in relation to Binding Assay (a). Some of the compounds shown in the table were tested more than once in the assay. For those compounds the IC50 value shown is the geometric mean of the measured IC50 values.

Sequence of recombinant human α5β1 (P08648 42-1049): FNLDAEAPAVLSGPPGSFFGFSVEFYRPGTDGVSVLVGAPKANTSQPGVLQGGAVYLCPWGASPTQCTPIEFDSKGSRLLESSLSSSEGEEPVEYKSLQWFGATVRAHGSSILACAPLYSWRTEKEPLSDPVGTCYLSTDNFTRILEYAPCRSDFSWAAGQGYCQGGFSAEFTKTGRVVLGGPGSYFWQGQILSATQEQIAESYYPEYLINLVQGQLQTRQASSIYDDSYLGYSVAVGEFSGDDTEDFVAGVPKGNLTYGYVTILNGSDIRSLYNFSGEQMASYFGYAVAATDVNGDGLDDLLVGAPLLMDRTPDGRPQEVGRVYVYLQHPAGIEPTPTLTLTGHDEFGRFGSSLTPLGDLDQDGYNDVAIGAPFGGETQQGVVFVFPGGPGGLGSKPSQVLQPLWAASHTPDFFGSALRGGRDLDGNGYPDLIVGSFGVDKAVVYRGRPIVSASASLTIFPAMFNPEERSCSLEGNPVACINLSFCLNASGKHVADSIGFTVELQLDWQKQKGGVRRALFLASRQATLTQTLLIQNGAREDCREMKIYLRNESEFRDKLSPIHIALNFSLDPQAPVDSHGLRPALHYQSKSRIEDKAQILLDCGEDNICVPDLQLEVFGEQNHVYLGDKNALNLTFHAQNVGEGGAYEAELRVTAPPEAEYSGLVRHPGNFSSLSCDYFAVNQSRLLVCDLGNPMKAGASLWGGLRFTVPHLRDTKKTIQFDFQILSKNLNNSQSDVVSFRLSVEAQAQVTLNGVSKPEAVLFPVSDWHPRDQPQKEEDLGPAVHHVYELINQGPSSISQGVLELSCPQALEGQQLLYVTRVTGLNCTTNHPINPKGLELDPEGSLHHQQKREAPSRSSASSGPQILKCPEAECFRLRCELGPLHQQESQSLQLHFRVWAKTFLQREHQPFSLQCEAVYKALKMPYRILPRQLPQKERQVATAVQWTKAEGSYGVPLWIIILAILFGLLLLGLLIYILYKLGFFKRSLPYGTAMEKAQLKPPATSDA
Sequence of recombinant human α5β1 (P05556 21-798): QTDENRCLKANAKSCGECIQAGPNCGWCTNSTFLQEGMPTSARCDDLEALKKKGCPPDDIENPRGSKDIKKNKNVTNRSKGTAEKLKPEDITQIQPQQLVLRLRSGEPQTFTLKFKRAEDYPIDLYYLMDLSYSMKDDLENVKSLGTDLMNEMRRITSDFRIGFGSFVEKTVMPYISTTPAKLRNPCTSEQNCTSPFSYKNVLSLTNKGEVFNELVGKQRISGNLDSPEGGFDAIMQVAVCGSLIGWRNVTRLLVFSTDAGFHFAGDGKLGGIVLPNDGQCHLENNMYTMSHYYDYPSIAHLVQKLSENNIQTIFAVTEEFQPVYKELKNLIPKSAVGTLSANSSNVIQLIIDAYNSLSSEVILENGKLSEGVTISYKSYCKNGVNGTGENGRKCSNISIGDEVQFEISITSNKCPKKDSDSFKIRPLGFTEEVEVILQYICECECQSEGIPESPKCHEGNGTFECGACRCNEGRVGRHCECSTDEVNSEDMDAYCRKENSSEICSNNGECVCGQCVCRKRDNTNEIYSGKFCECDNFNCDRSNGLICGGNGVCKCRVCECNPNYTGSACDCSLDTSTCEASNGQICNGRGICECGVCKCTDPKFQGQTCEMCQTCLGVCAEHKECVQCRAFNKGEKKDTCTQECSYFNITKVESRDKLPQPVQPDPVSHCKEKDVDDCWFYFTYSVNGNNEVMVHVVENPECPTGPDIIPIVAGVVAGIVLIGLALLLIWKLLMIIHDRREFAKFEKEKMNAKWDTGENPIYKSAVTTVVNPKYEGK

pIC50 | Structure (SMILES)
> 9.00 | O=C(N[C@@H](Cc1ccc(OCCc2ccc3c(n2)NCCO3)cc1)C(=O)O)c1c(Cl)cncc1Cl [Example 4.1, N-[(3,5-dichloropyridin-4-yl)carbonyl]-O-[2-(3,4-dihydro-2H-pyrido[3,2-b][1,4]oxazin-6-yl)ethyl]-L-tyrosine]
7.03 | Cn1c(C(=O)N[C@@H](Cc2ccc(OCCc3ccc4c(n3)NCCC4)cc2)C(=O)O)c(Cl)c2ccccc21 [Example 5.3, N-[(3-chloro-1-methyl-1H-indol-2-yl)carbonyl]-O-[2-(5,6,7,8-tetrahydro-1,8-naphthyridin-2-yl)ethyl]-L-tyrosine]
8.40 | Cc1cnccc1C(=O)N[C@@H](Cc1ccc(OCCc2ccc3c(n2)NCCO3)cc1)C(=O)O [Example 4.5, O-[2-(3,4-dihydro-2H-pyrido[3,2-b][1,4]oxazin-6-yl)ethyl]-N-[(3-methylpyridin-4-yl)carbonyl]-L-tyrosine]
9.00 | Cc1noc(C)c1C(=O)N[C@@H](Cc1ccc(OCCc2ccc3c(n2)NCCO3)cc1)C(=O)O [Example 4.3, O-[2-(3,4-dihydro-2H-pyrido[3,2-b][1,4]oxazin-6-yl)ethyl]-N-[(3,5-dimethylisoxazol-4-yl)carbonyl]-L-tyrosine]
8.30 | O=C(N[C@@H](Cc1ccc(OCCc2ccc3c(n2)NCCO3)cc1)C(=O)O)c1ccncc1Cl [Example 4.4, N-[(3-chloropyridin-4-yl)carbonyl]-O-[2-(3,4-dihydro-2H-pyrido[3,2-b][1,4]oxazin-6-yl)ethyl]-L-tyrosine]
7.47 | CNc1cccc(CCOc2ccc(C[C@H](NC(=O)c3cccnc3C)C(=O)O)cc2)n1 [Example 2.6, O-{2-[6-(methylamino)pyridin-2-yl]ethyl}-N-[(2-methylpyridin-3-yl)carbonyl]-L-tyrosine]
7.51 | CCSc1ncccc1C(=O)N[C@@H](Cc1ccc(OCCc2cccc(NC)n2)cc1)C(=O)O [Example 2.3, N-{[2-(ethylthio)pyridin-3-yl]carbonyl}-O-{2-[6-(methylamino)pyridin-2-yl]ethyl}-L-tyrosine]
9.00 | CCc1sccc1C(=O)N[C@@H](Cc1ccc(OCCc2ccc3c(n2)NCCC3)cc1)C(=O)O [Example 5.6, N-[(2-ethylthiophen-3-yl)carbonyl]-O-[2-(5,6,7,8-tetrahydro-1,8-naphthyridin-2-yl)ethyl]-L-tyrosine]
8.15 | CNc1cccc(CCOc2ccc(C[C@H](NC(=O)c3ccncc3Cl)C(=O)O)cc2)n1 [Example 2.1, N-(3-chloroisonicotinoyl)-O-{2-[6-(methylamino)pyridin-2-yl]ethyl}-L-tyrosine]
7.38 | COc1cscc1C(=O)N[C@@H](Cc1ccc(OCCc2ccc3c(n2)NCCC3)cc1)C(=O)O [Example 5.1, N-[(4-methoxythiophen-3-yl)carbonyl]-O-[2-(5,6,7,8-tetrahydro-1,8-naphthyridin-2-yl)ethyl]-L-tyrosine]

Further lines, the molecule ahead of its results:

Structure (SMILES) | pIC50
CNc1cccc(CCOc2ccc(C[C@H](NC(=O)c3csc(C(C)C)c3)C(=O)O)cc2)n1 [Example 1.30, N-[(5-isopropyl-3-thienyl)carbonyl]-O-{2-[6-(methylamino)pyridin-2-yl]ethyl}-L-tyrosine] | 6.88
CNc1cccc(CCOc2ccc(C[C@H](NC(=O)c3occc3C)C(=O)O)cc2)n1 [Example 1.6, O-{2-[6-(methylamino)pyridin-2-yl]ethyl}-N-(3-methyl-2-furoyl)-L-tyrosine] | 6.82
CNc1cccc(CCOc2ccc(C[C@H](NC(=O)c3c(C)n[nH]c3C)C(=O)O)cc2)n1 [Example 1.13, N-[(3,5-dimethyl-1H-pyrazol-4-yl)carbonyl]-O-{2-[6-(methylamino)pyridin-2-yl]ethyl}-L-tyrosine] | 7.77
CNc1cccc(CCOc2ccc(C[C@H](NC(=O)c3ncccc3Cl)C(=O)O)cc2)n1 [Example 1.23, N-[(3-chloropyridin-2-yl)carbonyl]-O-{2-[6-(methylamino)pyridin-2-yl]ethyl}-L-tyrosine] | 7.62
CNc1cccc(CCOc2ccc(C[C@H](NC(=O)c3scc(C)c3Cl)C(=O)O)cc2)n1 [Example 1.17, N-[(3-chloro-4-methyl-2-thienyl)carbonyl]-O-{2-[6-(methylamino)pyridin-2-yl]ethyl}-L-tyrosine] | 7.05
O=C(N[C@@H](Cc1ccc(OCCc2ccc3c(n2)NCCC3)nc1)C(=O)O)c1sccc1Cl [Example 9, N-[(3-chlorothiophen-2-yl)carbonyl]-3-{6-[2-(5,6,7,8-tetrahydro-1,8-naphthyridin-2-yl)ethoxy]pyridin-3-yl}-L-alanine] | 8.15
CNc1cccc(CCOc2ccc(C[C@H](NC(=O)c3nc(Cl)ccc3Cl)C(=O)O)cc2)n1 [Example 1.22, N-[(3,6-dichloropyridin-2-yl)carbonyl]-O-{2-[6-(methylamino)pyridin-2-yl]ethyl}-L-tyrosine] | 7.47
CNc1cccc(CCOc2ccc(C[C@H](NC(=O)c3ccoc3C)C(=O)O)cc2)n1 [Example 1.12, O-{2-[6-(methylamino)pyridin-2-yl]ethyl}-N-(2-methyl-3-furoyl)-L-tyrosine] | 7.68
CCCc1cc(C(=O)N[C@@H](Cc2ccc(OCCc3cccc(NC)n3)cc2)C(=O)O)cs1 [Example 1.29, O-{2-[6-(methylamino)pyridin-2-yl]ethyl}-N-[(5-propyl-3-thienyl)carbonyl]-L-tyrosine] | 7.15
CNc1cccc(CCOc2ccc(C[C@H](NC(=O)c3ncc(C(F)(F)F)cc3Cl)C(=O)O)cc2)n1 [Example 1.25, N-{[3-chloro-5-(trifluoromethyl)pyridin-2-yl]carbonyl}-O-{2-[6-(methylamino)pyridin-2-yl]ethyl}-L-tyrosine] | 7.44
CNc1cccc(CCOc2ccc(C[C@H](NC(=O)c3sccc3C)C(=O)O)cc2)n1 [Example 1.8, O-{2-[6-(methylamino)pyridin-2-yl]ethyl}-N-[(3-methyl-2-thienyl)carbonyl]-L-tyrosine] | 7.72
CNc1cccc(CCOc2ccc(C[C@H](NC(=O)c3sc(C)nc3C)C(=O)O)cc2)n1 [Example 1.5, N-[(2,4-dimethyl-1,3-thiazol-5-yl)carbonyl]-O-{2-[6-(methylamino)pyridin-2-yl]ethyl}-L-tyrosine] | 7.39
CCc1cc(C(=O)N[C@@H](Cc2ccc(OCCc3cccc(NC)n3)cc2)C(=O)O)cs1 [Example 1.28, N-[(5-ethyl-3-thienyl)carbonyl]-O-{2-[6-(methylamino)pyridin-2-yl]ethyl}-L-tyrosine] | 7.12
CCn1nc(C)cc1C(=O)N[C@@H](Cc1ccc(OCCc2cccc(NC)n2)cc1)C(=O)O [Example 1.7, N-[(1-ethyl-3-methyl-1H-pyrazol-5-yl)carbonyl]-O-{2-[6-(methylamino)pyridin-2-yl]ethyl}-L-tyrosine] | 7.14
CNc1cccc(CCOc2ccc(C[C@H](NC(=O)c3c(Cl)cncc3Cl)C(=O)O)cc2)n1 [Example 1.19, N-(3,5-dichloroisonicotinoyl)-O-{2-[6-(methylamino)pyridin-2-yl]ethyl}-L-tyrosine] | 9.00
CNc1cccc(CCOc2ccc(C[C@H](NC(=O)c3ccncc3C)C(=O)O)cc2)n1 [Example 1.21, O-{2-[6-(methylamino)pyridin-2-yl]ethyl}-N-(3-methylisonicotinoyl)-L-tyrosine] | 8.00
CNc1cccc(CCOc2ccc(C[C@H](NC(=O)c3scnc3C)C(=O)O)cc2)n1 [Example 1.16, O-{2-[6-(methylamino)pyridin-2-yl]ethyl}-N-[(4-methyl-1,3-thiazol-5-yl)carbonyl]-L-tyrosine] | 7.62
CNc1cccc(CCOc2ccc(C[C@H](NC(=O)c3sccc3Cl)C(=O)O)nc2)n1 [Example 7, N-[(3-chlorothiophen-2-yl)carbonyl]-3-(5-{2-[6-(methylamino)pyridin-2-yl]ethoxy}pyridin-2-yl)-L-alanine] | 7.68
CNc1cccc(CCOc2ccc(C[C@H](NC(=O)c3nc(C)oc3C)C(=O)O)cc2)n1 [Example 1.20, N-[(2,5-dimethyl-1,3-oxazol-4-yl)carbonyl]-O-{2-[6-(methylamino)pyridin-2-yl]ethyl}-L-tyrosine] | 6.46
